From PMC10261806, “Development of lentil peptides with potent antioxidant, antihypertensive, and antidiabetic activities along with umami taste” (Food Science & Nutrition, 2023)

Target: T1, rat intestinal α-glucosidase
T1 construct: gene Si; native commercial rat intestinal preparation (Sigma I1630, usually intestinal acetone powder)
Test: p-nitrophenyl-α-D-glucopyranoside hydrolysis, absorbance at […] nm
Format: biochemical
Conditions: 5 mM PNPG stock, pH 6.8-6.9, 37 °C, 10 min preincubation; positive control

C[C@H]1O[C@H](O[C@H]2[C@H](O)[C@@H](O)[C@@H](O[C@H]3[C@H](O)[C@@H](O)C(O)O[C@@H]3CO)O[C@@H]2CO)[C@H](O)[C@@H](O)[C@@H]1N[C@H]1C=C(CO)[C@@H](O)[C@H](O)[C@H]1O (stereo partly shown) [acarbose]
IC50 of inhibitory activity / α-Glucosidase: 0.51 ± 0.07 mg/mL
